The text below walks through data of ChEMBL document CHEMBL3244109, “Synthesis of cyclohexyl carbocyclic puromycin and its inhibition of protein synthesis” (J Med Chem, 1977).

Structures are written as SMILES. Activity calls are given as the source filed them. No cut-off for these calls is given here.

The assay in a line: Inhibition of rate of poly(U,C) (unknown origin)-directed L-[14C]poly-(phenylalanine) formation in Escherichia coli cell-free ribosome system at 10^-3 M by liquid scintillation counting. The class given is functional.
For `COc1ccc(C[C@H](N)C(=O)N[C@H]2CCC[C@@H](n3cnc4c(N(C)C)ncnc43)[C@@H]2O)cc1`, the inhibition entry was “inactive”.

In the case of `COc1ccc(C[C@H](N)C(=O)N[C@@H]2CC[C@H](n3cnc4c(N(C)C)ncnc43)[C@H]2O)cc1`, the inhibition result is “inactive”. The result for `COc1ccc(C[C@H](N)C(=O)N[C@H]2CC[C@@H](n3cnc4c(N(C)C)ncnc43)[C@@H]2O)cc1` reads “inactive”; that for `COc1ccc(C[C@H](N)C(=O)N[C@H]2CC[C@H](n3cnc4c(N(C)C)ncnc43)[C@H]2O)cc1`, “inactive”. The result for `COc1ccc(C[C@H](N)C(=O)N[C@@H]2CCC[C@H](n3cnc4c(N(C)C)ncnc43)[C@H]2O)cc1` reads “inactive”.
